Experimental data from US20240423944A1, “USE OF LAURYL GALLATE (LG) AS A HEMOSTATIC AGENT” (CENTRE DE BIOTECHNOLOGIE DE SFAX (CBS), priority 2021, published 2024).

Assays:
[1] = test system: washed human platelets; assay: Washed platelet aggregation by turbidimetry (light transmission aggregometer); format: cell-based
Procedure: Healthy volunteers had abstained from Aspirin and others anti-inflammatory drugs for at least […] prior to blood sampling. Written informed consent was obtained from all donors. Blood samples were collected into sodium citrate 3.2% and centrifuged for 10 min at 190 g. The supernatant thus obtained was the platelet-rich plasma (PRP).
Washed platelets were prepared from centrifuged PRP previously supplemented with rostacyclin (0.5 μM) to avoid platelet activation. The pellet was suspended in buffer A (pH 6.8) containing 140 mM NaCl, 5 mM KCl, 5 mM KH2PO4, 1 mM MgSO4, 10 mM N-2-hydroxyethylpiperazine-N′-2-ethanesulfonic acid, 5 mM glucose and 0.35% bovine serum albumin (w/v). The same buffer containing 1 mM CaCl2 and apyrase but without BSA (adjusted to pH 7.4) was added to the final suspension to reach 2×10^8 platelets/ml.
Different concentrations of LG were added to 270 μl of PRP or washed platelets from an initial concentration of 250 mM. Platelet aggregation was recorded using a light transmission aggregometer (SD Medical). The percentage of transmittance of PRP or washed platelets was recorded as 0%, and that of the appropriate PPP or buffer was recorded as 100% respectively. Each condition was repeated for many healthy volunteers. Platelets treated with DMSO serves as negative control. Potentiation between low doses of LG and collagen or TRAP to aggregate platelets was also determined.

[2] = test system: CD62-P (P-selectin); assay: Flow cytometry of α-granule secretion marker CD62-P; format: cell-based, human
Procedure: (§1) Washed platelets were pre-incubated with LG or DMSO for 5 and 10 min at 37° C. Samples were then incubated for 15 min at room temperature in the dark with anti-CD62P, anti-CD63 or monoclonal antibody PAC-1. This last recognize and binds only to the active form of integrin αIIbβ3 complex. Analysis of respective protein was performed using a FACS-Verse cytometer BD Biosciences). Platelets were identified on the basis of their Forward Scatter and Side Scatter properties.

[3] = test system: CD63; assay: Flow cytometry of dense granule secretion marker CD63; format: cell-based, human; conditions: following addition of LG
Procedure: as §1

[4] = test system: αIIbβ3 integrin; assay: Flow cytometry of αIIbβ3 activation with PAC-1 antibody; format: cell-based, human
Procedure: as §1

[5] = test system: phosphatidylserine (PS); assay: Phosphatidylserine exposure by annexin V binding (flow cytometry); format: cell-based, human; conditions: LG 0.05 mM
Procedure: For phosphatidylserine exposure, washed platelets were pre-incubated with LG 0.05 mM or DMSO for 5 min at 37° C. Dilute the activated or non-activated sample with the 1× binding buffer provided in the kit to a final volume of 100 μl and add 5 μl of Annexin V AF647 (Clinisciences) for 15 min at 37° C. in the dark. The binding reaction is stopped with 500 ill of 1× binding buffer (Ramstrom 2010). Analysis was performed using LSR Fortessa cytometer (BD Biosciences).

[6] = test system: washed platelets from healthy donors; assay: Scanning electron microscopy of platelets; format: cell-based, human; conditions: 10 min, non-shaking
Procedure: Platelets are treated with TRAP 25 μM, LG (LC and HC) during 10 minutes. They were fixed in 2.5% glutaraldehyde in 0.1 M Sorensen phosphate buffer (pH 7.4) for at least 1 h at 37° C. After sedimentation, the pellets were re-suspended in water and made to adhere on poly-lysine coated glass coverslips. Platelets were then dehydrated in a graded ethanol series and dried by critical point drying with a Leica EM CPD 300. The samples were coated with 6 nm Platinium on a Leica EM Med 020 before being examined on a FEI Quanta 250 FEG scanning electron microscope, at an accelerating voltage of 5 kV (Valet 2021).

[7] = test system: washed platelets from healthy donors; assay: Measurement of LDH leakage from washed platelets; format: cell-based, human; conditions: low doses of LG 0.1 mM), 10 min
Procedure: Washed platelets from healthy donors were treated with different doses of LG or control (DMSO) for 10 minutes at 37° C. Following, platelets were pelleted by centrifugation at 1800×g for 3 min. Supernatants were used to detect Lactate dehydrogenase (LDH) release by colorimetric method (Thermo Fisher Scientific), according to the manufacturer's protocol. The assay was performed in endpoint time of increased of formazan absorbance at 680 nm for 30 min. Maximal LDH leakage was obtained with lysis buffer. Results, expressed as percentage of LDH leakage are mean±SEM (n=6) (** p<0.01, *** p<0.001 according to Kruskal-Wallis test).

[8] = test system: Akt; assay: Western blotting of Akt phosphorylation (Ser473); format: cell-based, human
Procedure: (§2) Washed platelets were treated with LG (LC and HC) or DMSO. Aliquots were taken at 0, 2.5, 5 and 10 min, lysed with sample buffer and boiled. Proteins were loaded on to sodium dodecyl sulfate 10% polyacrylamide gel and, after electrophoresis, transferred to a nitrocellulose membrane. […] Phospho antibodies were diluted in TBS-Tween 5%-BSA (w/v) and incubated overnight and the others for 2 h. After washing, each blot was incubated with the corresponding horseradish peroxidase-conjugated anti-mouse or anti-rabbit. Immunoblots were developed using Super signal chemiluminescent substrate (Pierce, Rockford, IL) and analyzed with chemidoc Imaging system (Biorad).

[9] = test system: p38 MAPK; assay: Western blotting of p38 MAPK phosphorylation (Thr180/Tyr182); format: cell-based, human
Procedure: as §2

[10] = test system: Src kinases; assay: Western blotting of Src kinase cleavage; format: cell-based, human
Procedure: as §2

[11] = test system: washed human platelets; assay: Calcium mobilization with CalciFluor 8-AM and flow cytometry; format: cell-based
Procedure: Platelet calcium flux was adapted from the work described by (Monteiro et al. 1999). Washed platelets re-suspended at 10^8/ml in platelet wash buffer were incubated with the calcium indicator dyes Calcifluor 8-AM (R&D system) at 5 μM and Pluronic F-127 0.02% v/v (Sigma Aldrich) for 30 min at 37° C. The platelets were washed twice with platelet wash buffer, re-suspended in Tyrode's buffer containing EGTA (1 mM) or BAPTA-AM (10 μM). Changes in cytosolic calcium concentration were associated with increased or decreased fluorescence emission of Calcifluor 8-AM (emission wavelengths of 500-570 nm). These changes were analyzed using flow cytometry BD LSRII Fortessa. Results were expressed in fold increased Median Fluorescence. The determination of internal calcium concentration in platelet was described by Grynkiewicz et al. (1985).

[12] = test system: human whole blood; assay: Thrombus formation on immobilized collagen under flow conditions; format: cell-based; conditions: LG 0.05 mM
Procedure: This method was performed as previously described (Gratacap et al, 2009). Briefly, biochips with micro-capillaries (Vena8Fluoro+®, Cellix) were coated with collagen type I. Epi-fluorescence microscope (Axio Observer; Carl Zeiss) allowed direct visualization of platelet adhesion and aggregation which was recorded with ORCA-R2 camera (Hamamatsu). Whole blood was collected into 13.6 UI/m1 lithium heparinate and platelets were labeled with DIOC6(Life Technologies, 2 μM, 10 min at 37° C.) LG (0.05 mM) was then added to blood just prior to injection through a micro-capillary at shear rate of 1500 s^−1. Thrombus formation was visualized with a 40× long working distance objective in real time. The range was fixed to 80 μm and the interval to 1.5 μm. The acquisition rate was chosen at one frame every 30 sec divided into two positions. Quantification of surface coverage was performed off-line using ImageJ software.

[13] = test system: Wistar rats; assay: Rat tail bleeding time; format: in vivo
Procedure: Wistar rats of either gender weighing between 200 and 250 g were purchased from the Central Pharmacy of Tunisia. Animal handling conforms to the European Convention (CE. no. 123). Animals were fed a standard chow diet and had free access to water. They were housed five rats in a cage (0.12 m^2). Bleeding time was measured by transection of the tail, 1 cm from the tip, of phenobarbital anesthetized rats (25 mg/kg. i.p). Immediately after transection, the tail was dipped for 5 seconds into LG solution (5, 50, or 100 mg/ml of LG dissolved in ethanol) or vehicle (ethanol) and then placed carefully on Whatman paper. Blood was allowed to drop on filter paper which was moved gently every 30 seconds until no more blood was dropped. […] The bleeding time was also determined for a lot of rats not treated with any solution (control) and for another treated with ethanol to test the effect of the solvent. Tranexamic acid (100 mg/ml) was used as a standard anti-hemorrhagic drug under the same conditions. Each condition was repeated for six rats.

[14] = test system: Gram-positive bacteria like Bacillus subtilis or Streptococcus mutans; conditions: cited from earlier work
[15] = test system: fungi; conditions: Kubo et al, 2003; cited from earlier work
[16] = test system: animal viruses; conditions: Hurtado et al, 2008; cited from earlier work
[17] = test system: tumoral cell lines; conditions: Ortega et al, 2003; cited from earlier work
[18] = test system: platelets; conditions: Hongyan and Richard, 2004; cited from earlier work

collagen [reference compound]
platelet aggregation by agonist alone ([1]; collagen 0.15 μg/ml alone): unable to trigger detectable platelet aggregation

CCCCCCCCCCCCOC(=O)c1cc(O)c(O)c(O)c1 [LG, Dodecyl 3,4,5-trihydroxybenzoate]
maximal platelet aggregation ([1]; LG 0.05 mM alone, washed human platelets, fast and stable): ~80%
maximal platelet aggregation ([1]; high concentrations of LG (0.75 mM), slow response): ~50%
shape of dose-response of platelet aggregation ([1]; increasing concentrations, first peak 0.05 mM, decrease until 0.2 mM, plateau 0.75 to 1 mM): non-monotonic dose-response
expression of CD62-P on the plasma membrane ([2]; LG 0.05 mM): markedly increased
expression of CD62-P on the plasma membrane ([2]; LG 0.75 mM): markedly increased
α-granule secretion intensity compared with 50 μM TRAP ([2]; versus 50 μM TRAP): slightly lower
plasma membrane expression level of CD63 [3]: significantly increased
activation of αIIbβ3, lower than that induced by 50 μM TRAP ([4]; LG 0.05 mM versus 50 μM TRAP): 50%
expression of the active form of the fibrinogen receptor αIIbβ3 ([4]; particularly at 0.05 mM): significant increase
exposure of PS on the platelet surface (annexin V binding) [5]: significant exposure
platelet morphology ([6]; LG 0.05 mM): induced platelet shape change and filopodia formation
platelet morphology ([6]; LG 0.75 mM): membrane structure was strongly modified with a grainy appearance and apparent pores formation
LDH release from platelets [7]: no significant LDH release
Akt phosphorylation ([8]; LG 0.05 mM): rapid activation
Akt activation ([8]; LG 0.75 mM): at later times
p38 MAPK phosphorylation ([9]; LG 0.05 mM): rapid activation
p38 MAPK activation ([9]; LG 0.75 mM): at later times
Src-kinase cleavage ([10]; LG 0.75 mM, substantial at 10 min): induced a cleavage of Src-kinase
Src-kinase cleavage ([10]; low dose of LG (0.05 mM)): no impact
cytoplasmic free calcium concentration ([11]; LG 0.05 mM, after 2.5 min): 230 ± 25 nM
free cytosolic calcium ([11]; LG 0.75 mM, at 0.5 min): 105 ± 15 nM
surface covered by platelets ([12]; collagen matrix, arterial shear rate): significantly increased
thrombus volumes compared to control ([12]; collagen-coated microcapillaries, shear rate 1500 s^−1): significantly increased
time to capillary occlusion ([12]; in several experiments, recording 300 s): < 300 s
efficiency on bleeding time compared with tranexamic acid ([13]; LG 50 mg/ml versus tranexamic acid 100 mg/ml in ethanol): significantly more efficient
tail bleeding time ([13]; tail dipped 5 seconds, 50 mg/ml LG in ethanol): dramatically reduced
antibacterial activity [14]: antibacterial activity
antifungal activity [15]: does not have antifungal activity
antiviral activity [16]: potent antiviral activity
anti-proliferative and pro-apoptotic activity [17]: anti-proliferative and pro-apoptotic activity

CCCOC(=O)c1cc(O)c(O)c(O)c1 [propyl gallate]
platelet aggregation [18]: induce platelet aggregation
